The source of these data is US12545890B2, “Compositions and methods for derivation of trophoblast stem cells” (North Carolina State University, priority 2019, dated 2026).

Experiment [1] concerns H1 and H9 hESCs. Put plainly: differentiation of day-6 CTB-like cells to STB, analysed at day 14. The conditions noted are these: for formation of multinucleate STB expressing STB markers: agonist present during initial 6-day treatment, 14-day treatment; for formation of large multinucleated STB, compared among S1PR agonists: compared to the S1PR1 agonist.
Source text: (§1) Differentiation of hPSCs (6 days protocol). […] The medium was replaced every day.
Experiment [2] concerns H1 and H9 hESCs. Put plainly: differentiation of day-6 CTB-like cells to EVTs, analysed at day 12. The conditions noted are these: for formation of EVTs, expression of EVT markers HLA-G and VE-Cadherin: agonist present during initial 6-day treatment, 12-day treatment; for formation of mesenchymal EVTs, compared among S1PR agonists: relative to the S1PR2 agonist.
Source text: as §1
Experiment [3] deals with H1 and H9 hESCs. Kind of experiment: 6-day differentiation of hESCs to CTB-like cells in chemically defined medium, marker expression by qPCR and immunofluorescence. The conditions noted are these: for immunofluorescence expression of trophoblast/CTB markers in CTB-like cells: day 6, S1P or replacing agonist with BMP4 and SB431542 in E7 medium. In general terms: Quantitative PCR measures a nucleic acid by following its amplification.

Another experiment has as its system H9 and H1 hESCs. Put plainly: 3-day differentiation of hESCs, quantitative image analysis of nuclear CDX2. The class given is cell-based, human. The settings on record: day 3; BMP4 and SB431542 in E7 medium with S1PR3 agonist. The method, then:
Differentiation of hPSCs to hPSC-TS^CDX2 and hPSC-TS cells. […] The medium was replaced every day. […] Alternatively, hPSCs after 2 or 3 days of differentiation were directly passaged into TSCM.
Immunofluorescence analysis.
Confocal image analysis. Image analysis was conducted using an image processing algorithm created in MATLAB. First, the DAPI stain was isolated, binarized, and processed to accurately represent the number of cells in each image. The primary-antibody stain of interest was isolated and processed in the same manner. Only primary-antibody pixels that overlap DAPI pixels were considered for analysis, and the average intensities of those pixels were measured and correlated to the nearest nuclei. This was performed for one control image and multiple experimental images. Each cell in the experimental images was considered positively stained if the average intensity of that cell was greater than the average intensity of all of the cells in the control image. Statistical analysis was done using a two-tailed t-test evaluating percent positive cells from different treatment periods.

Setting [4] is: day 6, qualitative immunofluorescence.

For `CCOc1ccc(-c2nc(-c3cccc4c3CCC4NCCO)no2)cc1OCC.Cl` (stereo not drawn) [CYM5442 hydrochloride], in the experiment on H1 and H9 hESCs [1], the “formation of multinucleate STB expressing STB markers” value is “formation of multinucleate STB expressing KRT7 and hCG”. Besides, in the experiment with H1 and H9 hESCs [2], the “formation of EVTs, expression of EVT markers HLA-G and VE-Cadherin” value is “expression of the EVT markers HLA-G and VE-Cadherin”; the “formation of mesenchymal EVTs, compared among S1PR agonists” value was “enhanced formation of mesenchymal EVTs”. In the experiment with H1 and H9 hESCs [3] (setting [4]), the “intensity of CDX2 and P63 expression, compared among S1PR agonists” value (shortened to “intensity … compared among S1PR agonists”) was “higher”; the “nuclear P63 expression, compared among S1PR agonists” value is on record as “strongest”. In addition, in the experiment on H1 and H9 hESCs [3], the “immunofluorescence expression of trophoblast/CTB markers in CTB-like cells” value was “Expression of CDX2, GATA3, P63, and TEAD4 was observed”.
Regarding `Cc1cc(C(=O)Cn2cc(C#N)ccc2=O)c(C)n1Cc1ccccc1` [CYM5520], in the experiment with H1 and H9 hESCs [1], the “formation of multinucleate STB expressing STB markers” value is “formation of multinucleate STB expressing KRT7 and hCG”; the “formation of large multinucleated STB, compared among S1PR agonists” value is recorded as “more pronounced”. In addition, in the experiment on H1 and H9 hESCs [2], the “formation of EVTs, expression of EVT markers HLA-G and VE-Cadherin” value is “expression of the EVT markers HLA-G and VE-Cadherin”. Further, the “intensity … compared among S1PR agonists” value with H1 and H9 hESCs [3] (setting [4]) is “lower expression of CDX2, strong cytoplasmic expression of P63, and high heterogeneity in staining”. Besides, the “immunofluorescence expression of trophoblast/CTB markers in CTB-like cells” value in the experiment on H1 and H9 hESCs [3] is “Expression of CDX2, GATA3, P63, and TEAD4 was observed”.
For `O=C(c1cc(C2CC2)on1)N(C1CCCCC1)C1CCCCC1` [CYM5541], in the experiment on H1 and H9 hESCs [1], the “formation of multinucleate STB expressing STB markers” value was “formation of multinucleate STB expressing KRT7 and hCG”; the “formation of large multinucleated STB, compared among S1PR agonists” value is recorded as “more pronounced”. Moreover, in the experiment on H1 and H9 hESCs [2], the “formation of EVTs, expression of EVT markers HLA-G and VE-Cadherin” value is “expression of the EVT markers HLA-G and VE-Cadherin”; the “formation of mesenchymal EVTs, compared among S1PR agonists” value is given as “enhanced formation of mesenchymal EVTs”. Besides, the “fraction of CDX2+ cells” value in the experiment with H9 and H1 hESCs is “nearly all cells are CDX2^+”. Further, in the experiment with H1 and H9 hESCs [3] (setting [4]), the “intensity … compared among S1PR agonists” value was “higher”. The “intensity … compared among S1PR agonists” value in the experiment with H1 and H9 hESCs [3] (day 6, qualitative immunofluorescence, listed as S1PR3 agonist) is listed as “high CDX2 expression”. The “immunofluorescence expression of trophoblast/CTB markers in CTB-like cells” value with H1 and H9 hESCs [3] was “Expression of CDX2, GATA3, P63, and TEAD4 was observed”.
`CCCCCCCCCCCCC/C=C/[C@@H](O)[C@@H](N)COP(=O)(O)O` [S1P, sphingosine-1 phosphate]: in the experiment on H1 and H9 hESCs [1] (S1P removed during initial 6-day treatment, syncytin and KRT7 staining), the “differentiation to STB in the absence of S1P” value is “did not occur”. Moreover, the “formation of multinucleate STB expressing STB markers” value in the experiment on H1 and H9 hESCs [1] is “formation of KRT7^+ multinucleate cells expressing the STB markers hCG and syncytin”. Moreover, the “formation of EVTs upon removal of S1P” value in the experiment with H1 and H9 hESCs [2] (S1P removed during hESC differentiation to CTB-like cells, identical differentiation conditions) was “abolished formation of EVTs”. Further, the “formation of EVTs, expression of EVT markers HLA-G and VE-Cadherin” value in the experiment with H1 and H9 hESCs [2] is “expression of KRT7 and the EVT markers VE-Cadherin and HLA-G”. Moreover, the “gene expression of CTB markers CDX2 and ELF5” value in the experiment with H1 and H9 hESCs [3] (H1 and H9 hESCs, 6 days in E7 medium supplemented with S1P, with BMP4 and SB431542, compared to hESCs) was “upregulation of the CTB markers CDX2 and ELF5 was observed”. For the same molecule, in the experiment with H1 and H9 hESCs [3] (H1 and H9 hESCs, after 6 days in E7 medium supplemented with S1P, with BMP4 and SB431542), the “gene expression of neural and mesodermal markers” value is “no significant changes in markers associated with neural or mesodermal differentiation”. The “gene expression after 6 days of differentiation upon removal of S1P” value with H1 and H9 hESCs [3] (H9 and H1 hESCs, compared to 6-day treatment in the presence of S1P) is “downregulation of the CTB marker CDX2 and upregulation of transcripts of neural and mesoderm markers”. Further, the “immunofluorescence expression of trophoblast/CTB markers in CTB-like cells” value with H1 and H9 hESCs [3] is “confirmed expression of the pan-trophoblast marker KRT7, and CTB markers P63 and GATA3”.
As to `CCCCCCCCCCCCCCC[C@@H](O)[C@@H](N)COP(=O)(O)O` [dhS1P, D-erythro-dihydrospingosine-1-phosphate], the “formation of multinucleate STB expressing STB markers” value in the experiment with H1 and H9 hESCs [1] was “STB expressing KRT7 and hCG”. For the same molecule, in the experiment with H1 and H9 hESCs [2], the “formation of EVTs, expression of EVT markers HLA-G and VE-Cadherin” value is “EVT expressing HLA-G and VE-Cadherin were obtained”. Also, the “immunofluorescence expression of trophoblast/CTB markers in CTB-like cells” value in the experiment on H1 and H9 hESCs [3] was “CTB-like cells showed expression of CDX2, GATA3, P63, and TEAD4”.
